One data set has as its target Prothrombin (Homo sapiens, UniProt P00734). As to the kind of experiment: Binding affinity towards thrombin obtained from human purified enzymes.
The target of another data set is Serine protease 1 (Homo sapiens, UniProt P07477). As to the kind of experiment: Binding affinity towards trypsin obtained from human purified enzymes.
Data set [1] can be described thus: In vivo clearance (5 mg/kg) was determined in rabbits. In kind it is ADME, organism-based, Oryctolagus cuniculus. Particulars: rabbit.
A further data set has as its target Coagulation factor X (Homo sapiens, UniProt P00742). Put plainly: Binding affinity towards human purified Coagulation factor Xa (FXa).
For the next data set, the species on record is Oryctolagus cuniculus. As to the kind of experiment: Inhibitory activity against thrombus formation in rabbit using Arterio-Venous Shunt Thrombosis Model. Type of data set: functional.
A short description of data set [2]: The plasma half life (5 mg/kg) was measured in rabbits. As to conditions: rabbit. Type of data set: ADME, organism-based, Oryctolagus cuniculus.

Chain of Serine protease 1 (P07477 whole entry): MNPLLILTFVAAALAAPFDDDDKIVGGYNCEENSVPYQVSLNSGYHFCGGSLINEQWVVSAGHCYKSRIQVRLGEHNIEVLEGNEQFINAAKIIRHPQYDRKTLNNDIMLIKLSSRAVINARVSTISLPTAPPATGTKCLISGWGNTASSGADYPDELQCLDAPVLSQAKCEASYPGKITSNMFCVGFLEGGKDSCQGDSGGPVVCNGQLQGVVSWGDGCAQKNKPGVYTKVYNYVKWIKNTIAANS
Chain of Coagulation factor X (P00742 41-179 limits assumed): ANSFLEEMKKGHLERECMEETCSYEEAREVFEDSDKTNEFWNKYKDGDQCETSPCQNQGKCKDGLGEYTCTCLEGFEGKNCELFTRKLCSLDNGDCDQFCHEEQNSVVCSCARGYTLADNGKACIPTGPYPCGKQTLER
Chain of Coagulation factor X (P00742 235-488 limits assumed): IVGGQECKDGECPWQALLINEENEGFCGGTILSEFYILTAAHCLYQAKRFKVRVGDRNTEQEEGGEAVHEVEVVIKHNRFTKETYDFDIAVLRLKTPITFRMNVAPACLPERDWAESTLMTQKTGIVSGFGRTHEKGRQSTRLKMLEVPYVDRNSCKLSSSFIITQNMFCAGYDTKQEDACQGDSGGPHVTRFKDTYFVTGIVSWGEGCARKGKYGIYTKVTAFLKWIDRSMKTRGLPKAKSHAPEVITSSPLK

For orientation: Ki means a dissociation constant, usually derived from enzyme kinetics or from competition with a known ligand. Higher therefore signals a looser hold on the target. As usually defined, the clearance is the rate of elimination divided by the concentration. A lower clearance goes with a low capacity for elimination. One may read the half-life as the time in which the quantity being followed falls by half. For `CCOCC1(C(=O)Nc2ccc(-c3ccccc3S(N)(=O)=O)cn2)CC(c2cccc(C(=N)N)c2)=NO1` (stereo not given) [listing 1 of 2 here], the results for the Ki on Prothrombin, at Serine protease 1 and on Coagulation factor X were 5000 nM, 25 nM and 0.8 nM, respectively. The clearance in data set [1] was 21.7 mL/min/kg. Besides, in the data set filed under Oryctolagus cuniculus, the ID50 is 0.8 µM/h/kg. In data set [2], the half-life was 36 min.
Consider `N=C(N)c1cccc(C2=NOC(Cn3cnnn3)(C(=O)Nc3ncc(-c4ccccc4S(N)(=O)=O)cn3)C2)c1` (stereo not given) [listing 1 of 2 here], for which the Ki on Prothrombin is 3000 nM; at Serine protease 1, 120 nM; on Coagulation factor X it was 0.32 nM.
For `CCOCC1(C(=O)Nc2ccc(-c3ccccc3S(N)(=O)=O)cc2)CC(c2cccc(C(=N)N)c2)=NO1` (stereo not given) [listing 1 of 2 here], the figures for the inhibition constant (Ki) on Prothrombin, at Serine protease 1 and on Coagulation factor X were 2100 nM, 86 nM and 3.3 nM, respectively. This molecule also had a clearance in data set [1] of 8.17 mL/min/kg. In the data set filed under Oryctolagus cuniculus, this molecule yielded an ID50 of 0.74 µM/h/kg. In data set [2], the half-life was 37.8 min.
Turning to `N=C(N)c1cccc(C2=NOC(Cn3cnnn3)(C(=O)Nc3ccc(-c4ccccc4S(N)(=O)=O)cc3)C2)c1` (stereo not given) [listing 1 of 2 here], the Ki on Prothrombin came out at 400 nM; on Serine protease 1, 45 nM; at Coagulation factor X it was 0.52 nM. For the same molecule, in data set [1], the clearance is 5 mL/min/kg. Moreover, the ID50 in the data set listed under Oryctolagus cuniculus was 0.035 µM/h/kg. Further, the half-life in data set [2] was 36 min.
Take `CCCNS(=O)(=O)c1ccccc1-c1ccc(NC(=O)C2(Cn3cnnn3)CC(c3cccc(C(=N)N)c3)=NO2)cc1` (stereo not given): the Ki was determined as 70 nM on Prothrombin, 49 nM at Serine protease 1 and 2.1 nM at Coagulation factor X.
In the case of `COC(=O)CC1(C(=O)Nc2ccc(-c3ccccc3S(N)(=O)=O)cc2)CC(c2cccc(C(=N)N)c2)=NO1.O=C(O)C(F)(F)F` (stereo not given), the Ki stood at 3100 nM on Prothrombin and 110 nM at Serine protease 1. The same molecule had a clearance in data set [1] of 3.5 mL/min/kg. Also, the ID50 in the data set listed under Oryctolagus cuniculus was determined as 0.6 µM/h/kg. The molecule also had a half-life in data set [2] of 55.2 min.
With `N=C(N)c1cccc(C2=NOC(Cc3ccccc3)(C(=O)Nc3ccc(-c4ccccc4S(N)(=O)=O)cc3)C2)c1` (stereo not given), the results for the Ki at Prothrombin, on Serine protease 1 and at Coagulation factor X were 1300 nM, 80 nM and 8.5 nM, respectively.
With `CCSCC1(C(=O)Nc2ncc(-c3ccccc3S(N)(=O)=O)cn2)CC(c2cccc(C(=N)N)c2)=NO1` (stereo not given), the values for the inhibition constant (Ki) at Prothrombin, at Serine protease 1 and on Coagulation factor X were 10000 nM, 350 nM and 2.4 nM, respectively.
Consider `N=C(N)c1cccc(C2=NOC(CC(=O)O)(C(=O)Nc3ccc(-c4ccccc4S(N)(=O)=O)cc3)C2)c1.O=C(O)C(F)(F)F` (stereo not given), for which the inhibition constant Ki is more than 21000 nM at Prothrombin, 630 nM on Serine protease 1 and 20 nM at Coagulation factor X. The molecule also showed a clearance in data set [1] of 4.67 mL/min/kg. In addition, in the data set filed under Oryctolagus cuniculus, the ID50 is more than 4.8 µM/h/kg. For the same molecule, the half-life in data set [2] was 94.2 min.
Turning to `CCOCC1(C(=O)Nc2ccc(-c3ccccc3S(N)(=O)=O)cn2)CC(c2cccc(C(=N)N)c2)=NO1` (stereo not given) [listing 2 of 2 here], the Ki on Prothrombin was 8400 nM; on Serine protease 1 it was 40 nM; at Coagulation factor X, 2.8 nM.
As for `CNS(=O)(=O)c1ccccc1-c1ccc(NC(=O)C2(Cn3cnnn3)CC(c3cccc(C(=N)N)c3)=NO2)cc1` (stereo not given), the Ki is 100 nM on Prothrombin, 49 nM at Serine protease 1 and 0.92 nM at Coagulation factor X.
With `N=C(N)c1cccc(C2=NOC(Cn3cnnn3)(C(=O)Nc3ccc(-c4ccccc4S(N)(=O)=O)cc3Cl)C2)c1.O=C(O)C(F)(F)F` (stereo not given), the Ki on Prothrombin came out at 300 nM; at Serine protease 1, 47 nM; at Coagulation factor X, 0.15 nM. This molecule also showed a clearance in data set [1] of 13.3 mL/min/kg. For the same molecule, the ID50 in the data set listed under Oryctolagus cuniculus worked out at 0.25 µM/h/kg. Also, the half-life in data set [2] is 48 min.
`N=C(N)c1cccc(C2=NOC(Cn3cnnn3)(C(=O)Nc3ccc(-c4ccccc4S(N)(=O)=O)cc3F)C2)c1` (stereo not given): the Ki was 500 nM on Prothrombin, 110 nM at Serine protease 1 and 0.44 nM at Coagulation factor X.
As for `CCSCC1(C(=O)Nc2ccc(-c3ccccc3S(N)(=O)=O)cn2)CC(c2cccc(C(=N)N)c2)=NO1` (stereo not given), the Ki stood at 2800 nM on Prothrombin, 54 nM at Serine protease 1 and 2.2 nM on Coagulation factor X.
On to `COC(=O)CC1(C(=O)Nc2ncc(-c3ccccc3S(N)(=O)=O)cn2)CC(c2cccc(C(=N)N)c2)=NO1` (stereo not given), for which the Ki at Prothrombin stood at 14000 nM; on Serine protease 1, 330 nM; at Coagulation factor X it was 4.3 nM.
On to `N=C(N)c1cccc(C2=NOC(Cn3cnnn3)(C(=O)Nc3ncc(-c4ccccc4S(N)(=O)=O)cn3)C2)c1` (stereo not given) [listing 2 of 2 here], for which the values for the Ki at Prothrombin, at Serine protease 1 and at Coagulation factor X were 7700 nM, 500 nM and 1.3 nM, respectively.
Regarding `CCCOCC1(C(=O)Nc2ccc(-c3ccccc3S(N)(=O)=O)cc2)CC(c2cccc(C(=N)N)c2)=NO1` (stereo not given), the Ki on Prothrombin amounted to 4300 nM; at Serine protease 1, 90 nM; on Coagulation factor X, 2.9 nM.
Regarding `COC(=O)CC1(C(=O)Nc2ccc(-c3ccccc3S(N)(=O)=O)cn2)CC(c2cccc(C(=N)N)c2)=NO1` (stereo not given), the Ki came to 3900 nM on Prothrombin, 52 nM at Serine protease 1 and 2.3 nM at Coagulation factor X.
For `COCC1(C(=O)Nc2ncc(-c3ccccc3S(N)(=O)=O)cn2)CC(c2cccc(C(=N)N)c2)=NO1` (stereo not given) the same measures were 16000 nM, 390 nM and 9.9 nM.
With `CC(C)OCC1(C(=O)Nc2ccc(-c3ccccc3S(N)(=O)=O)cc2)CC(c2cccc(C(=N)N)c2)=NO1` (stereo not given), the Ki at Prothrombin stood at 4500 nM; at Serine protease 1, 120 nM; at Coagulation factor X it was 4.3 nM.
Take `N=C(N)c1cccc(C2=NOC(Cn3cnnn3)(C(=O)Nc3ccc(-c4ccccc4S(N)(=O)=O)cc3)C2)c1` (stereo not given) [listing 2 of 2 here]: the Ki on Prothrombin was 900 nM; on Serine protease 1, 91 nM; at Coagulation factor X it was 1.6 nM.
Turning to `COCC1(C(=O)Nc2ccc(-c3ccccc3S(N)(=O)=O)cc2)CC(c2cccc(C(=N)N)c2)=NO1` (stereo not given), the figures for the Ki on Prothrombin, at Serine protease 1 and at Coagulation factor X were 2400 nM, 70 nM and 3.4 nM, respectively.
As to `CC(C)COCC1(C(=O)Nc2ccc(-c3ccccc3S(N)(=O)=O)cc2)CC(c2cccc(C(=N)N)c2)=NO1` (stereo not given), the results for the Ki on Prothrombin, on Serine protease 1 and at Coagulation factor X were 3900 nM, 140 nM and 37 nM, respectively.
The like results for `CCOCC1(C(=O)Nc2ncc(-c3ccccc3S(N)(=O)=O)cn2)CC(c2cccc(C(=N)N)c2)=NO1` (stereo not given) were, in that order, more than 21000 nM, 330 nM and 6.8 nM.
`CCOCC1(C(=O)Nc2ccc(-c3ccccc3S(N)(=O)=O)cc2)CC(c2cccc(C(=N)N)c2)=NO1` (stereo not given) [listing 2 of 2 here]: the values for the Ki on Prothrombin, on Serine protease 1 and at Coagulation factor X were 3100 nM, 70 nM and 3.5 nM, respectively.
For `CCS(=O)(=O)CC1(C(=O)Nc2ncc(-c3ccccc3S(N)(=O)=O)cn2)CC(c2cccc(C(=N)N)c2)=NO1` (stereo not given), the Ki was 13000 nM on Prothrombin, 290 nM on Serine protease 1 and 5.3 nM on Coagulation factor X.
As to `Cc1cc(-c2ccccc2S(N)(=O)=O)ccc1NC(=O)C1(Cn2cnnn2)CC(c2cccc(C(=N)N)c2)=NO1` (stereo not given), the Ki at Prothrombin worked out at 300 nM; at Serine protease 1 it was 200 nM; on Coagulation factor X, 1 nM.
`CCCCOCC1(C(=O)Nc2ccc(-c3ccccc3S(N)(=O)=O)cc2)CC(c2cccc(C(=N)N)c2)=NO1` (stereo not given): the inhibitory constant (Ki) at Prothrombin is 4000 nM; at Serine protease 1, 113 nM; at Coagulation factor X, 13 nM.
On to `CC1(C(=O)Nc2ccc(-c3ccccc3S(N)(=O)=O)cc2)CC(c2cccc(C(=N)N)c2)=NO1` (stereo not given), for which the inhibition constant (Ki) on Prothrombin was 5800 nM; at Serine protease 1, 120 nM; on Coagulation factor X it was 11 nM.
For the molecule `CCS(=O)(=O)CC1(C(=O)Nc2ccc(-c3ccccc3S(N)(=O)=O)cc2)CC(c2cccc(C(=N)N)c2)=NO1` (stereo not given), the Ki on Prothrombin was 2000 nM; on Serine protease 1, 72 nM; at Coagulation factor X it was 3.5 nM.
For `N=C(N)c1cccc(C2=NOC(Cn3cncn3)(C(=O)Nc3ccc(-c4ccccc4S(N)(=O)=O)cc3)C2)c1` (stereo not given), the Ki at Prothrombin was 3400 nM; on Serine protease 1, 47 nM; at Coagulation factor X, 1.7 nM.
For `N=C(N)c1cccc(C2=NOC(C(=O)Nc3ccc(-c4ccccc4S(N)(=O)=O)cc3)(C(F)(F)F)C2)c1` (stereo not given), the Ki at Prothrombin is 6100 nM; on Serine protease 1, 310 nM; at Coagulation factor X, 23 nM.
As for `N=C(N)c1cccc(C2=NOC(Cn3cnnn3)(C(=O)Nc3ccc(-c4ccccc4S(N)(=O)=O)cn3)C2)c1` (stereo not given) [listing 1 of 2 here], the Ki at Prothrombin is 900 nM; at Serine protease 1 it was 18 nM; at Coagulation factor X it was 0.11 nM. In data set [1], this molecule had a clearance of 8.33 mL/min/kg. This molecule also had an ID50 in the data set filed under Oryctolagus cuniculus of 0.032 µM/h/kg. The molecule also showed a half-life in data set [2] of 42 min.
On to `N=C(N)c1cccc(C2=NOC(Cn3ncnn3)(C(=O)Nc3ccc(-c4ccccc4S(N)(=O)=O)cc3)C2)c1` (stereo not given), for which the Ki at Prothrombin stood at 2900 nM; at Serine protease 1 it was 91 nM; on Coagulation factor X, 1.6 nM.
For `N=C(N)c1cccc(C2=NOC(C(=O)Nc3ccc(-c4ccccc4S(N)(=O)=O)cc3)C2)c1` (stereo not given) the same measures were 3900 nM, 83 nM and 7.2 nM.
`CC1(C(=O)Nc2ccc(-c3ccccc3S(N)(=O)=O)cn2)CC(c2cccc(C(=N)N)c2)=NO1` (stereo not given): the Ki on Prothrombin stood at 8100 nM; on Serine protease 1 it was 41 nM; at Coagulation factor X, 4.1 nM.
Take `COCC1(C(=O)Nc2ccc(-c3ccccc3S(N)(=O)=O)cn2)CC(c2cccc(C(=N)N)c2)=NO1` (stereo not given): the Ki at Prothrombin is 7400 nM; on Serine protease 1 it was 45 nM; on Coagulation factor X, 2.5 nM.
For the molecule `N=C(N)c1cccc(C2=NOC(Cn3cnnn3)(C(=O)Nc3ccc(-c4ccccc4S(N)(=O)=O)cn3)C2)c1` (stereo not given) [listing 2 of 2 here], the Ki at Prothrombin came out at 1100 nM; at Serine protease 1, 31 nM; at Coagulation factor X it was 0.17 nM.
Consider `CCS(=O)(=O)CC1(C(=O)Nc2ccc(-c3ccccc3S(N)(=O)=O)cn2)CC(c2cccc(C(=N)N)c2)=NO1` (stereo not given), for which the Ki amounted to 5800 nM at Prothrombin, 72 nM at Serine protease 1 and 1.7 nM at Coagulation factor X.
In the case of `COCCC1(C(=O)Nc2ccc(-c3ccccc3S(N)(=O)=O)cc2)CC(c2cccc(C(=N)N)c2)=NO1` (stereo not given), the Ki turned out to be 4400 nM on Prothrombin, 98 nM at Serine protease 1 and 5 nM on Coagulation factor X.
